For the assay, the target named is PD-1/PD-L1 (Homo sapiens (Human), UniProt Q9NZQ7). Kind of assay: PD-1/PD-L1 biochemical protein-protein interaction assay (ALPHA). The following applies: 0.3 nM His tagged PD-L1, 2.5 nM biotinylated Fc-PD-1, 60 minutes at 25° C., read-out: IC50 PD-L1-PD1.
PD-1/PD-L1, sequence (Q9NZQ7 19-238): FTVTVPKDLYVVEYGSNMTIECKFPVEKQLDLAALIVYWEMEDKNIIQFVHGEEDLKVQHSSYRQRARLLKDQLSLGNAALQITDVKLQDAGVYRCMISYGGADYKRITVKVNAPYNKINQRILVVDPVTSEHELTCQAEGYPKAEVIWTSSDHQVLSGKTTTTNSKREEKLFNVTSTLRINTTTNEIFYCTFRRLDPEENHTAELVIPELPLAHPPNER
What is called IC50 is the point on the concentration scale where inhibition reaches its midpoint. Regarding `COc1nc(-c2cccc(-c3cccc(-c4cnc(CN5CC[C@]6(O)C[C@@H]6C5)c(OC)n4)c3Cl)c2Cl)cnc1CNC[C@@H]1CCC(=O)N1` [compound 482], the IC50 is 0.108 nM.
Regarding `CNc1nc(-c2cccc(-c3cccc(-c4cnc(CN(C)C)c(NC)n4)c3Cl)c2Cl)cnc1CN(C)C` [compound 71], the IC50 is 0.081 nM.
Take `COc1nc(-c2cccc(-c3cccc(-c4cnc(CN5CCC(C(=O)N(C)C)C5)c(OC)n4)c3Cl)c2Cl)cnc1CN1CCC(C(=O)N(C)C)C1` (centres unmarked) [compound 531]: the IC50 worked out at 0.225 nM.
Next, `COc1nc(-c2cccc(-c3cccc(-c4cc(C)c(CN5C[C@@H]6CCC[C@]6(C(=O)O)C5)c(OC)n4)c3Cl)c2Cl)cnc1CNC[C@@H]1CCC(=O)N1` [compound 655]: 0.064 nM.
Next, `COc1nc(-c2cccc(-c3cccc(-c4cnc(CN[C@H]5C[C@H](CO)C5)c(OC)n4)c3Cl)c2Cl)cnc1CNC[C@@H]1CCC(=O)N1` [compound 511]: 0.197 nM; `COc1nc(-c2cccc(-c3cccc(-c4cnc(CN5CC6(C5)CC(C)(O)C6)c(OC)n4)c3Cl)c2Cl)cnc1CNC[C@@H]1CCC(=O)N1` [compound 307]: 0.167 nM.
For the molecule `COc1nc(-c2cccc(-c3cccc(-c4cnc(CNC56CC(C(F)(F)F)(C5)C6)c(OC)n4)c3Cl)c2Cl)cnc1CNC[C@@H]1CCC(=O)N1` [compound 15], the 50% inhibitory concentration (IC50) was determined as 7.51 nM.
`COc1nc(-c2cccc(-c3cccc(-c4cnc(CNC5CCN(C(N)=O)CC5)c(OC)n4)c3Cl)c2Cl)cnc1CNC1CCN(C(N)=O)CC1` [compound 466]: the IC50 amounted to 0.073 nM.
Next, `COc1nc(-c2cccc(-c3cc(F)cc(-c4cnc(CN5CC(O)C5)c(OC)n4)c3Cl)c2Cl)cnc1CN1CC(O)C1` [compound 399]: 0.324 nM; `COc1nc(-c2cccc(-c3cccc(-c4cnc(CN[C@H]5C[C@](O)(CF)C5)c(OC)n4)c3Cl)c2Cl)cnc1CNC[C@@H]1CCC(=O)N1` [compound 432]: 0.084 nM; `COc1nc(-c2cccc(-c3cccc(-c4cnc(CN(CCO)CCO)c(OC)n4)c3Cl)c2Cl)cnc1CNC[C@@H]1CCC(=O)N1` [compound 522]: 0.064 nM.
Next, `COc1nc(-c2cccc(-c3cccc(-c4cnc(CN5C[C@H](O)[C@@H](O)C5)c(OC)n4)c3Cl)c2Cl)cnc1CN1C[C@H](O)[C@@H](O)C1` [compound 526]: 0.168 nM; `COc1nc(-c2cccc(-c3cccc(-c4cnc(CN5CC[C@@H](OC)[C@@H](F)C5)c(OC)n4)c3Cl)c2Cl)cnc1CNC[C@@H]1CCC(=O)N1` [compound 260]: 0.295 nM; `COc1nc(-c2cccc(-c3cccc(-c4cnc(CN[C@H]5C[C@@](C)(O)C5)c(OC)n4)c3Cl)c2Cl)cnc1CN[C@H]1C[C@@](C)(O)C1` [compound 241]: 0.27 nM.
Next, `COc1nc(-c2cccc(-c3cccc(-c4cnc(CN5C[C@H]6CC(=O)N[C@H]6C5)c(OC)n4)c3Cl)c2Cl)cnc1CNC[C@@H]1CCC(=O)N1` [compound 312]: 0.295 nM.
Consider `COc1nc(-c2cccc(-c3cccc(-c4cnc(CNC5(c6cccnc6)CC5)c(OC)n4)c3Cl)c2Cl)cnc1CNC[C@@H]1CCC(=O)N1` [compound 424], for which the half-maximal inhibitory concentration (IC50) amounted to 0.617 nM.
Take `COc1nc(-c2cccc(-c3cccc(-c4cnc(CN5CC6CC6(CO)C5)c(OC)n4)c3Cl)c2Cl)cnc1CNC[C@@H]1CCC(=O)N1` (some centres unmarked) [compound 52]: the half-maximal inhibitory concentration (IC50) came out at 0.17 nM.
Next, `COc1nc(-c2cccc(-c3cccc(-c4cnc(CNC[C@@H]5CCC(=O)N5)c(OC)n4)c3Cl)c2Cl)ccc1CN1CCC(CO)CC1` [compound 160]: 0.128 nM.
On to `COc1nc(-c2cccc(-c3cccc(-c4cnc(CNC[C@@H]5CCC(=O)N5)c(OC)n4)c3Cl)c2Cl)cnc1CNC[C@H]1CCN1` [compound 254], for which the IC50 was 0.11 nM.
Next, `COc1nc(-c2cccc(-c3cccc(-c4cnc(CN5CC6(CNC(=O)O6)C5)c(OC)n4)c3Cl)c2Cl)cnc1CNC[C@@H]1CCC(=O)N1` [compound 50]: 0.259 nM.
Next, `COc1nc(-c2cccc(-c3cccc(-c4cnc(CN5CC[C@H](O)[C@@H]5C)c(OC)n4)c3Cl)c2Cl)cnc1CNC[C@@H]1CCC(=O)N1` [compound 516]: 0.064 nM; `COc1nc(-c2cccc(-c3cccc(-c4cnc(CNC5CC(CC(N)=O)C5)c(OC)n4)c3Cl)c2Cl)cnc1CNC[C@@H]1CCC(=O)N1` (some centres unmarked) [compound 217]: 0.14 nM; `COc1nc(-c2cccc(-c3cccc(-c4cnc(CN(C)C[C@@H]5CCC(=O)N5)c(OC)n4)c3Cl)c2Cl)cnc1CNC[C@@H]1CCC(=O)N1` [compound 580]: 0.359 nM.
Next, `COc1nc(-c2cccc(-c3cccc(-c4cnc(CN5CCC(CO)(CO)C5)c(OC)n4)c3Cl)c2Cl)cnc1CN1CCC(CO)(CO)C1` [compound 634]: 0.064 nM; `COc1nc(-c2cccc(-c3cccc(-c4cnc(C5=NC[C@@H](C)N5)c(OC)n4)c3Cl)c2Cl)ccc1CNC[C@@H]1CCC(=O)N1` [compound 644]: 0.093 nM.
For the molecule `COc1nc(-c2cccc(-c3cccc(-c4cnc(CN(C)C)c(OC)n4)c3Cl)c2Cl)cnc1CN(C)C` [compound 401], the IC50 was found to be 0.295 nM.
`CNc1nc(-c2cccc(-c3cccc(-c4cnc(CN)c(NC)n4)c3Cl)c2Cl)cnc1CN` [compound 58]: the half-inhibitory concentration (IC50) stood at 6.76 nM.
Next, `COc1nc(-c2cccc(-c3cccc(-c4cnc(CNC[C@@H]5CCC(=O)N5)c(OC)n4)c3Cl)c2Cl)cnc1CNCC1OCCO1` [compound 433]: 0.259 nM; `COc1nc(-c2cccc(-c3cccc(-c4cnc(CNC[C@@H]5CCC(=O)N5)c(OC)n4)c3Cl)c2Cl)cnc1CNCCc1cncnc1` [compound 520]: 0.072 nM.
Next, `CNC(=O)[C@H]1CCCN1Cc1ncc(-c2cccc(-c3cccc(-c4cnc(CNC[C@@H]5CCC(=O)N5)c(OC)n4)c3Cl)c2Cl)nc1OC` [compound 20]: 0.546 nM; `CNC(=O)C1CCN(Cc2ncc(-c3cccc(-c4cccc(-c5cnc(CC6CCN(C(=O)NC)C6)c(OC)n5)c4Cl)c3Cl)nc2OC)C1` (centres unmarked) [compound 468]: 0.123 nM; `C#CC1(O)CN(Cc2ncc(-c3cccc(-c4cccc(-c5cnc(CN6CC(O)(C#C)C6)c(OC)n5)c4Cl)c3Cl)nc2OC)C1` [compound 550]: 0.593 nM.
Regarding `COc1nc(-c2cccc(-c3cccc(-c4cnc(CN[C@@H]5COC[C@H]5O)c(OC)n4)c3Cl)c2Cl)cnc1CNC[C@@H]1CCC(=O)N1` [compound 11], the IC50 was 0.172 nM.
Next, `COc1nc(-c2cccc(-c3cccc(-c4cnc(CN[C@@H](C)[C@H]5CCC(=O)N5)c(OC)n4)c3Cl)c2Cl)cnc1CNC[C@@H]1CCC(=O)N1` [compound 598]: 0.178 nM; `COc1nc(-c2cccc(-c3cccc(-c4cnc(CN[C@@H]5CCN(C6COC6)C5)c(OC)n4)c3Cl)c2Cl)cnc1CNC[C@@H]1CCC(=O)N1` [compound 333]: 0.171 nM; `COc1nc(-c2cccc(-c3cccc(-c4cnc(CN5CC(C)(O)C5)c(OC)n4)c3Cl)c2Cl)cnc1CNC[C@H]1CCC(=O)N1` [compound 446]: 0.138 nM.
Next, `CCn1cc(CNCc2ncc(-c3cccc(-c4cccc(-c5cnc(CNCc6cnn(CC)c6)c(OC)n5)c4Cl)c3Cl)nc2OC)cn1` [compound 31]: 0.334 nM.
Next, `O=C1CC2(CN1)CN(Cc1ncc(-c3cccc(-c4cccc(-c5cnc(CN6CC7(CNC(=O)C7)C6)c(Cl)n5)c4Cl)c3Cl)nc1Cl)C2` [compound 109]: 0.586 nM.

(Values after patent publication US10710986B2, “PD-1/PD-L1 inhibitors” (Gilead Sciences, Inc., priority 2018, dated 2020).)
